Read-outs that look alike come from different tables or passages of the source.
Tests used:
[1] = system: YAP-TEAD transcription complex; assay: YAP-TEAD reporter gene assay (dual luciferase, stably transfected 293T cells); type: cell-based; conditions: Homo sapiens, HEK-293T
[2] = biological target: T1, Cytochrome Oxidase P450 1A2 (Homo sapiens, UniProt P05177); assay: Inhibition of cytochrome oxidase P450; type: in vitro ADME; conditions: liver microsomes
T1 construct: a biochemical reaction of prepared liver microsomes supplemented with a redox coenzyme; from tissue; host or cells: liver microsomes
T1 sequence (P05177 1-516): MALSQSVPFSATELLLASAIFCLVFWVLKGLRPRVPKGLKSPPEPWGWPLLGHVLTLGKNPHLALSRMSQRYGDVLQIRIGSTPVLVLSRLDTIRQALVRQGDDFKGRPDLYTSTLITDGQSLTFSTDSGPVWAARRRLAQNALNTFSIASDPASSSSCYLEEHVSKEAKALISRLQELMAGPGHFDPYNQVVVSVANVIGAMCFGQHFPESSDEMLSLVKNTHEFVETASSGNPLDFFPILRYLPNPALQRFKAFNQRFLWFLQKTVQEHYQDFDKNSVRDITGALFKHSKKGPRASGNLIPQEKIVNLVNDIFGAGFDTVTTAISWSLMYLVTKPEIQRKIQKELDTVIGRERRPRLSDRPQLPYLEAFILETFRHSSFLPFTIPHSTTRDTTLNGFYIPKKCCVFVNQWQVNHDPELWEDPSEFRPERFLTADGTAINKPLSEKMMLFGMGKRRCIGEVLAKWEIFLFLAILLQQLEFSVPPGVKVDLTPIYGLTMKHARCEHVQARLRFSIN
Protocol: (§1) Efficacy Experimental Example 5: Inhibition of Cytochrome Oxidase P450
(§2) 100 mM K-Buffer: 9.5 mL of stock solution A was mixed with 40.5 mL of stock solution B, the total volume was adjusted to […] with ultrapure water, and the buffer was titrated to pH 7.4 with KOH or H3PO4.
(§3) The test substance powder was prepared into a stock solution at a certain concentration with DMSO or another organic solvent, which was then further diluted with a suitable organic solvent.
(§4) The liver microsomal in vitro incubation system for the CYP450 enzyme metabolism phenotype study was a biochemical reaction of prepared liver microsomes supplemented with a redox coenzyme and an enzyme-specific selective inhibitor under simulated physiological temperature and environment conditions.
(§5) The concentration of the parent drug or a metabolite thereof in the incubation solution was determined by LC-MS/MS.

[3] = biological target: T2, Cytochrome Oxidase P450 2D6 (Homo sapiens, UniProt P10635); assay: Inhibition of cytochrome oxidase P450; type: in vitro ADME; conditions: liver microsomes
T2 construct: a biochemical reaction of prepared liver microsomes supplemented with a redox coenzyme; from tissue; host or cells: liver microsomes
Protocol: as §1, §2, §3, §4, §5

[4] = biological target: T3, Cytochrome Oxidase P450 3A4-M (Homo sapiens, UniProt P08684); assay: Inhibition of cytochrome oxidase P450; type: in vitro ADME; conditions: liver microsomes
T3 construct: a biochemical reaction of prepared liver microsomes supplemented with a redox coenzyme; from tissue; host or cells: liver microsomes
Protocol: as §1, §2, §3, §4, §5

[5] = biological target: T4, Cytochrome Oxidase P450 2C9 (Homo sapiens, UniProt P11712); assay: Inhibition of cytochrome oxidase P450; type: in vitro ADME; conditions: liver microsomes
T4 construct: a biochemical reaction of prepared liver microsomes supplemented with a redox coenzyme; from tissue; host or cells: liver microsomes
Protocol: as §1, §2, §3, §4, §5

[6] = biological target: T5, Cytochrome Oxidase P450 2C19 (Homo sapiens, UniProt P33261); assay: Inhibition of cytochrome oxidase P450; type: in vitro ADME; conditions: liver microsomes
T5 construct: a biochemical reaction of prepared liver microsomes supplemented with a redox coenzyme; from tissue; host or cells: liver microsomes
Protocol: as §1, §2, §3, §4, §5

in vivo = conditions: mouse, plasma, po
Protocol: After adding 5% DMSO, the mixture was vortexed. 15% HS15 was then added, and the mixture was vortexed again. Finally, a 10% aqueous cyclodextrin solution was added, and the resulting mixture was vortexed to prepare the final concentration solution or suspension.

[7] = 293T reporter cells, 24 h of drug treatment, read-out: IC50

T3 sequence (P08684 whole entry): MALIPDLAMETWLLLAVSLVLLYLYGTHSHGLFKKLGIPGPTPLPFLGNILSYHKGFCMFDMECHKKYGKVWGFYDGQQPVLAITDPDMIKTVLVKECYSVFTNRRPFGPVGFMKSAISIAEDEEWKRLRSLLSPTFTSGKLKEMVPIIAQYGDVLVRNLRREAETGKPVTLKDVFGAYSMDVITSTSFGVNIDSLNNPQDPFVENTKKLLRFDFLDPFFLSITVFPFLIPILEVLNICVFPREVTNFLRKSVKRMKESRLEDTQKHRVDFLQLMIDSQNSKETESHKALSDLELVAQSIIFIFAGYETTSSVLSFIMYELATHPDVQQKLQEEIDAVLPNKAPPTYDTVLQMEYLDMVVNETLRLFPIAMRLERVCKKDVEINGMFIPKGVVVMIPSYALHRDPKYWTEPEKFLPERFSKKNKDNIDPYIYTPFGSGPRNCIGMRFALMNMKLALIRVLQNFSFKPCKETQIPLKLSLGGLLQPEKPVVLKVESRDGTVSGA
T2 sequence (P10635 whole entry): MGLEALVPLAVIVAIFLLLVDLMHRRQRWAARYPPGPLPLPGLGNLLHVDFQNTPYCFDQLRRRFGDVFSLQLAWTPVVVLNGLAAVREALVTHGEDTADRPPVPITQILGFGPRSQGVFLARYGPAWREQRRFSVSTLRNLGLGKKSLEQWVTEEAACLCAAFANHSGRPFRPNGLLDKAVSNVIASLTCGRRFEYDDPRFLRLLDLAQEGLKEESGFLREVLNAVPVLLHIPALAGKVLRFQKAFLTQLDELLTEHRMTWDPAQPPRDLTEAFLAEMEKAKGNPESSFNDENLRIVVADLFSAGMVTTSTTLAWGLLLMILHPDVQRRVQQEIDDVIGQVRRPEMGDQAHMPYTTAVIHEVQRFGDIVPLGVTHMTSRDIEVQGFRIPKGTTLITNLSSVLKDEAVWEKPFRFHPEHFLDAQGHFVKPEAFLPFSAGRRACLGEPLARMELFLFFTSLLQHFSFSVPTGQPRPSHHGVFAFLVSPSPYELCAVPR
T4 sequence (P11712 whole entry): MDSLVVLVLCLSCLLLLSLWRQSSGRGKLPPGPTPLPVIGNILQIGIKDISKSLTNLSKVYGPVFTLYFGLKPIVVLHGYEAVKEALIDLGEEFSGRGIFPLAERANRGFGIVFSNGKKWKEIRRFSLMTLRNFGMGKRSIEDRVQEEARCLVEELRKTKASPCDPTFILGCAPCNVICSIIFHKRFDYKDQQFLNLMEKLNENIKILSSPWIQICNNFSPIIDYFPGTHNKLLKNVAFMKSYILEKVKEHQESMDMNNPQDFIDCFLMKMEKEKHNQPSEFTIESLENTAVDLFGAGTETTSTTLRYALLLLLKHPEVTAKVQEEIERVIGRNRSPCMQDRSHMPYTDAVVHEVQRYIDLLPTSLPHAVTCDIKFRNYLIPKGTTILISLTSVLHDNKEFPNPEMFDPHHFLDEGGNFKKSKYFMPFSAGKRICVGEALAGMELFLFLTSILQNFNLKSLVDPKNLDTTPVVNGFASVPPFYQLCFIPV
T5 sequence (P33261 whole entry): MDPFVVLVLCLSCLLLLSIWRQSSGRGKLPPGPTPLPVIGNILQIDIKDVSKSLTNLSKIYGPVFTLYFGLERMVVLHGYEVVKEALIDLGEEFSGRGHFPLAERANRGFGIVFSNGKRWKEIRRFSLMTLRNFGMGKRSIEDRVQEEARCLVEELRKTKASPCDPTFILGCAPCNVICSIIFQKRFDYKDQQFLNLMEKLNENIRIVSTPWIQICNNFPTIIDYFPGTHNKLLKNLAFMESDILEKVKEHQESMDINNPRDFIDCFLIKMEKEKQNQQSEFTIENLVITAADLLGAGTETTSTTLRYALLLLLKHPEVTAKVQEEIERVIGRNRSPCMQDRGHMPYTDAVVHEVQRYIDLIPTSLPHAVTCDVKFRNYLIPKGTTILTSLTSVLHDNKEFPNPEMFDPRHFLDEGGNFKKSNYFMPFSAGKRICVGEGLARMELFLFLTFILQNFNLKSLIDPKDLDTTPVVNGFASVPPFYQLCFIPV

Cn1cnc(-c2cc(P(C)(C)=O)cnc2Nc2ccc(C(F)(F)F)cc2)c1 [Example 8]
IC50 ([1]; 24 h): 42.4 nM | IC50 [2]: > 10 µM | IC50 [3]: > 10 µM | IC50 [4]: > 10 µM | IC50 [5]: > 10 µM | IC50 [6]: > 10 µM | AUC(0-t) (in vivo; 200 mg/kg): 2430 µM·h

Cn1cnc(-c2cc(P(C)(C)=O)ccc2Nc2ccc(C(F)(F)F)cc2)c1 [Example 14]
IC50 ([1]; 24 h): 20.2 nM | IC50 [2]: > 10 µM | IC50 [3]: > 10 µM | IC50 [4]: > 10 µM | IC50 [5]: > 10 µM | IC50 [6]: > 10 µM | AUC(0-t) (in vivo; 200 mg/kg): 3140 µM·h | Cmax (in vivo; 200 mg/kg): 141 µM

Cc1ccc(Oc2ccc(C(F)(F)F)cc2)c2ccc(P(C)(C)=O)cc12 [Example 24]
IC50 ([1]; 24 h): 135 nM

CP(C)(=O)c1ccc2c(c1)c1cccnc1n2-c1ccc(C(F)(F)F)cc1 [Example 5]
IC50 [1, 7]: 57.1 nM

CP(C)(=O)c1ccc(Nc2ccc(C(F)(F)F)cc2)c(-c2ncccn2)c1 [Example 12]
IC50 [1, 7]: 92.1 nM

CP(C)(=O)c1ccc2c(c1)c1ccccc1n2-c1ccc(C(F)(F)F)cc1 [Example 1]
IC50 ([1]; 24 h): 39.7 nM | IC50 [2]: > 10 µM | IC50 [3]: > 10 µM | IC50 [4]: > 10 µM | IC50 [5]: > 10 µM | IC50 [6]: > 10 µM

CP(C)(=O)c1cnc(Nc2ccc(C(F)(F)F)cc2)c(-c2cn3c(n2)CCC3)c1 [Example 22]
IC50 ([1]; 24 h): 13.6 nM | IC50 [2]: > 10 µM | IC50 [3]: > 10 µM | IC50 [4]: > 10 µM | IC50 [5]: > 10 µM | IC50 [6]: > 10 µM | AUC(0-t) (in vivo; 200 mg/kg): 2520 µM·h

CP(C)(=O)c1ccc2c(Oc3ccc(C(F)(F)F)cc3)cccc2c1 [Example 7]
IC50 ([1]; 24 h): 4.09 nM | IC50 [2]: > 10 µM | IC50 [3]: > 10 µM | IC50 [4]: > 10 µM | IC50 [5]: > 10 µM | IC50 [6]: > 10 µM | AUC(0-t) (in vivo; 100 mg/kg): 2830 µM·h

CP(C)(=O)c1ccc(Nc2ccc(C(F)(F)F)cc2)c(-c2ccccn2)c1 [Example 10]
IC50 [1, 7]: 100 nM | AUC(0-t) (in vivo; 200 mg/kg): 3380 µM·h | Cmax (in vivo; 200 mg/kg): 148 µM
